Results: patent US8604060B2, “Use of antagonists of the CBI receptor for the manufacture of a composition useful for the treatment of hepatic diseases” (INSERM, priority 2004, dated 2013)

Tests used:
CD1 mice = assay: Mortality induced by chronic carbon tetrachloride intoxication (experimental model of liver fibrosis) in mice; format: in vivo; conditions: 10 mg/kg daily intraperitoneal
Text: FIG. 4: Plot showing the effect of SR141716 or its vehicle on the mortality induced by carbon tetrachloride in mice. The survival rate of mice treated with CC14 either with SR141716 (dotted lines) or with no treatment (solid lines showing the administration of vehicle only without CB1 antagonist) is shown against time in days. Time of administration of CC14 is shown by the arrow.
The antifibrogenic potential of the CB1 antagonist SR 141716 in an experimental model of liver fibrosis, induced by chronic intoxication with carbon tetrachloride was evaluated.
SR 141716 (10 mg/kg body weight) was dissolved freshly before use, in a vehicle solution (2 drops of Tween 80 in 10 ml of PBS containing 10% dimethylsulfoxide and 5% ethanol) and sonicated.
CD1 mice were obtained from Janvier (France). All experiments were performed using accepted ethical guidelines. 36 males, aged 10-12 weeks, were used and animals were divided into the following groups: vehicle-treated, olive oil group (n=3); vehicle-treated, CC14 group (n=14); SR 141716-treated olive oil group (n=3); SR 141716A-treated, CC14 group (n=16). Animals were housed in temperature and humidity controlled rooms, kept on a 12-h light/dark cycle and provided unrestricted amounts of food and water, unless otherwise specified. […]

[1] = test system: murine myofibroblasts isolated from wild type mice; assay: DNA synthesis ([3H] thymidine incorporation) in murine hepatic myofibroblasts from wild type mice stimulated with PDGF-BB; format: cell-based, mouse; conditions: 20 ng/ml PDGF-BB, 30 h
Procedure: (§1) FIG. 3: Plots showing the effect of increasing amounts of CB1 antagonist SR141716 on DNA synthesis in human hepatic myofibroblast (panel A) and on wild type mice (shown as WT) and CB1 deficient mice (shown as CB1KO) (panel B). The DNA synthesis is expressed as a percentage of DNA synthesis in cells treated with the vehicle of SR 141716 and plotted against increasing concentrations of SR 141716 in nM. Human hepatic myofibroblast cells were stimulated for 30 h with varying concentrations of the CB1 receptor antagonist SR 141716, in the presence of 20 ng/ml of PDGF-BB [^3H] […] Error bars are shown on the plot. […] Thymidine incorporation into DNA was measured as mean±SEM, from 3-6 experiments obtained from cells isolated from livers of 3 WT and 3 CB1 -/- mice and are expressed as percent of control. […]
(§2) DNA synthesis was measured in triplicate wells by incorporation of [3H] thymidine, as previously described (Tao, J., et al., J Biol Chem, 1999. 274(34): p. 23761-23769). […]
(§3) The cell culture was performed as described in example 1 herein. Cell culture of both human and mouse hepatic myofibroblasts were exposed to increasing doses of CB1 receptor antagonist SR141716 and the DNA synthesis of hepatic myofibroblasts was measured.

[2] = test system: human hepatic myofibroblasts; assay: DNA synthesis ([3H] thymidine incorporation) in human hepatic myofibroblasts stimulated with PDGF-BB; format: cell-based; conditions: 20 ng/ml PDGF-BB, 30 h, read-out: half maximal inhibition of DNA synthesis elicited by PDGF-BB
Procedure: as §1, §2, §3

[3] = test system: CB1-/- cells (mouse hepatic myofibroblasts); assay: DNA synthesis ([3H] thymidine incorporation) in hepatic myofibroblasts from CB1-/- mice stimulated with PDGF-BB; format: cell-based; conditions: 20 ng/ml PDGF-BB, 30 h
Procedure: as §1, §2, §3

Structure (SMILES): Cc1c(C(=O)NN2CCCCC2)nn(-c2ccc(Cl)cc2Cl)c1-c1ccc(Cl)cc1 [SR141716, N-piperidino-5-(4-chlorophenyl)-1-(2,4-dichlorophenyl)-4-methylpyrazole-3-carboxamide]
- survival rate at one month (CD1 mice; CC14 0.5 ml/kg IP twice a week for one month, started 7 days before CC14): 83%
- deaths in sham animals (CD1 mice; olive oil (sham) mice): no deaths
- DNA synthesis elicited by PDGF-BB [1]: inhibited
- IC50 [2]: 300 to 400 nM
- proliferation (DNA synthesis elicited by PDGF-BB) [3]: only marginally affected
